The source of these data is patent US9605005B2, “Alkynyl alcohols and methods of use” (Genentech, Inc., priority 2013, dated 2017).

Where two headings read alike, the source gives them in different places. Bounds are passed on as bounds.

The target in assay [1] is nuclear factor-kappa B (NF-kB)-inducing kinase (NIK) (Homo sapiens (Human), UniProt Q99558). The assay can be described thus: NIK enzyme inhibition assay (Transcreener ADP, NIK ADP-FP). Conditions: purified NIK 0.5 nM, 10 μM ATP, fluorescence polarization; read-out: NIK ADP-FP (Ki μM). It is filed as biochemical. Background: Polarisation of emitted light reports the rotation of a fluorescent probe.

Assay [2] concerns REL-A (p65) nuclear translocation, HeLa cells. In words: REL-A (p65) nuclear translocation assay in HeLa cells (classical NF-kB signaling, TNF-α stimulated). It is filed as cell-based. Conditions: Homo sapiens, 0.5 h. Here is the method:
(§1) Several assays were developed to profile the cellular activities of NIK inhibitors.
(§2) (2) A second set of cell assay are used to define the selectivity of NIK inhibitors toward inhibition of classical vs. non-classical NF-kB signaling and rely on quantification of the nuclear translocation of p52 (NF-kB2) and REL-A (p65) using high content cellular imaging. For the p52 (non-classical NF-kB signaling) nuclear translocation assay, HeLa cells are treated with different concentrations of compounds (0.2% DMSO final) in medium containing 10% fetal bovine serum and then stimulated with 100 ng/mL of an anti-lymphotoxin beta receptor antibody (R&D Systems) for 5 hours. In the REL-A nuclear translocation assay, HeLa cells are incubated with compounds (0.2% DMSO final) for 4.5 hours in medium containing 10% fetal bovine serum before stimulating them with 10 ng/mL tumor necrosis factor (TNF)-α (R&D Systems) for 30 minutes. Cells are fixed with 4% paraformaldehyde, permeabilized by adding 0.1% Triton X-100 in phosphate buffered saline, and then are incubated with either 2 ug/mL anti-p52 antibody (Millipore) or 400 ng/mL anti-REL-A (p65) antibody (Santa Cruz Biotechnology). Finally, the cells are incubated with an Alexa488-labeled secondary antibody (Invitrogen) and DRAQ5 DNA stain (Biostatus). Imaging is carried out using an Opera reader (Perkin Elmer) and data are analyzed with the aid of Acapella software (Perkin Elmer). The p52 or REL-Atranslocation into the nucleus is quantified by the ratio of the nuclear to cytoplasmic signal intensity. […] The compounds in listed in Table 1 have the corresponding inhibitory value (IC50 in micromolar) for NIK p52 Translocation Assay as set forth in Table 2.
(§3) The compounds in listed in Table 1 have the corresponding inhibitory values (IC50 in micromolar) for the Translocation Assays as set forth in Table 2.

Assay [3] deals with p52 (NF-kB2) nuclear translocation, HeLa cells. In words: p52 (NF-kB2) nuclear translocation assay in HeLa cells (non-classical NF-kB signaling, anti-lymphotoxin beta receptor antibody stimulated). It is filed as cell-based. Conditions: Homo sapiens, 100 ng/mL anti-lymphotoxin beta receptor antibody for 5 hours, read-out: p52 HeLa Transloc Assay (IC50). How it is done:
as §1, §2, §3

The mark [4] stands for this setting: HeLa cells, 10 ng/mL TNF-α for 30 minutes, read-out: REL-A HeLa Transloc Assay (IC50).

nuclear factor-kappa B (NF-kB)-inducing kinase (NIK), sequence (Q99558 whole entry): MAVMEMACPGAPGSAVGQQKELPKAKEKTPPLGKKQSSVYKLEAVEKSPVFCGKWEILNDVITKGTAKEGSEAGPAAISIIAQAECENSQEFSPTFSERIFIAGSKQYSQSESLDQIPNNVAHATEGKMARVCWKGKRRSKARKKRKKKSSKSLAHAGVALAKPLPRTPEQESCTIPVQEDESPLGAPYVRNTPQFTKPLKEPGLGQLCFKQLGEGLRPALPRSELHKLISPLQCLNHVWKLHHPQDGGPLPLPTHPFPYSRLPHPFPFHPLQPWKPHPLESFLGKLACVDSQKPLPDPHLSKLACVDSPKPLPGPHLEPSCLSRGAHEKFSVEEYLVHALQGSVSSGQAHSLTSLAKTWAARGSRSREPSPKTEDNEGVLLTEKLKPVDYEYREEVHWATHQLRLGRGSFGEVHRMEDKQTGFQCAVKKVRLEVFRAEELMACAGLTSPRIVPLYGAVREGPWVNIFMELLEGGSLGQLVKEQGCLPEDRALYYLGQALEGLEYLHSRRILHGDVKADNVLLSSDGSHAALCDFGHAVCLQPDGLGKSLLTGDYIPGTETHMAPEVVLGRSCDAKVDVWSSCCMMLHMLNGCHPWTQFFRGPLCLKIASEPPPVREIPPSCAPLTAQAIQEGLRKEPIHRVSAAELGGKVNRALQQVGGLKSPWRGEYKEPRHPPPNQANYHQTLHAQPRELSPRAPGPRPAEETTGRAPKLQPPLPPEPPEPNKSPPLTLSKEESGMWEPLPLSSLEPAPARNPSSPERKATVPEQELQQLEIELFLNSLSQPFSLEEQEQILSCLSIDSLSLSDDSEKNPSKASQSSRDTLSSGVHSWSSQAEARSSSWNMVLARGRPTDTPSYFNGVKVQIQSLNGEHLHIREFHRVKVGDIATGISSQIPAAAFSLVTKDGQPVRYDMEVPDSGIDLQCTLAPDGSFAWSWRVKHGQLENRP

The Ki is a dissociation constant, usually derived from enzyme kinetics or from competition with a known ligand. One may read the IC50 as the midpoint of a concentration-inhibition curve. Consider `CN1CC[C@@](O)(C#Cc2cccc(-n3nc(C(N)=O)c4ccc(Cl)nc43)c2)C1=O` [Compound 153, 6-chloro-1-[3-[2-[(3R)-3-hy-droxy-1-methyl-2-oxo-pyrroli-din-3-yl]ethynyl]phenyl] pyrazolo[3,4-b]pyridine-3-carboxamide], for which the Ki in assay [1] came to 0.52 nM. Also, the IC50 in assay [2] (setting [4]) stood at 2 µM; in assay [3] it was 132 nM.

`CN1CC[C@@](O)(C#Cc2cccc(-c3nc(C(N)=O)n4cccnc34)c2)C1=O` [Compound 85, 8-[3-[2-[(3R)-3-hydroxy-1-methyl-2-oxo-pyrrolidin-3-yl]ethynyl]phenyl]imidazo[1,5-a]pyrimidine-6-carboxamide]: in assay [1], the Ki stood at 0.05 nM. Also, the values for the IC50 in assay [2] (setting [4]) and in assay [3] were 19.2 µM and 38.6 nM, respectively.

In the case of `CN1CC[C@@](O)(C#Cc2cccc(-n3nc(C(N)=O)c4scnc43)c2)C1=O` [Compound 144, 1-[3-[2-[(3R)-3-hydroxy-1-methyl-2-oxo-pyrrolidin-3-yl]ethynyl]phenyl]pyrazolo [3,4-d]thiazole-3-carboxamide], in assay [1], the Ki stood at 0.31 nM. For the same compound, the IC50 in assay [2] (setting [4]) was 20 µM; in assay [3] it was 33.1 nM.

Take `C[C@@H](O)c1ccc2c(c1)c(C(N)=O)nn2-c1cccc(C#C[C@]2(O)CCN(C)C2=O)c1` [Compound 43, 5-[(1R)-1-hydroxyethyl]-1-[3-[2-[(3R)-3-hydroxy-1-meth-yl-2-oxo-pyrrolidin-3-yl]ethynyl]phenyl]indazole-3-carboxamide]: the inhibition constant Ki in assay [1] came out at 1.6 nM. Moreover, the IC50 in assay [2] (setting [4]) is 20 µM; in assay [3], 921 nM.

On to `COc1ncc2c(C(N)=O)nn(-c3cccc(C#C[C@]4(O)CCN(C)C4=O)c3)c2n1` [Compound 160, 1-[3-[2-[(3R)-3-hydroxy-1-methyl-2-oxo-pyrrolidin-3-yl]ethynyl]phenyl]-6-methoxy-pyrazolo[3,4-d]pyrimidine-3-carboxamide], for which the Ki in assay [1] was 0.13 nM. Further, the IC50 in assay [2] (setting [4]) turned out to be 20 µM; in assay [3] it was 66.8 nM.

On to `CN1CC[C@@](O)(C#Cc2cccc(-c3nc(C(N)=O)n4ccc(CN5CCOCC5)cc34)c2)C1=O` [Compound 99, 1-[3-[2-[(3R)-3-hydroxy-1-methyl-2-oxo-pyrrolidin-3-yl]ethynyl]phenyl]-7-(morpho-linomethyl)imidazo[1,5-a]pyridine-3-carboxamide], for which the Ki in assay [1] came out at 1.52 nM. Moreover, the IC50 in assay [2] (setting [4]) turned out to be 2 µM; in assay [3], 231 nM.

For the compound `Cc1cc(C#C[C@]2(O)CCN(C)C2=O)cc(-n2nc(C(N)=O)c3cccnc32)c1` [Compound 152, 1-[3-[2-[(3R)-3-hydroxy-1-methyl-2-oxo-pyrrolidin-3-yl]ethynyl]-5-methyl-phenyl] pyrazolo[3,4-b]pyridine-3-carboxamide], in assay [1], the Ki amounted to 0.87 nM. The IC50 is 20 µM in assay [2] (setting [4]) and 45.8 nM in assay [3].

For the compound `CN1CC[C@@](O)(C#Cc2cccc(-n3nc(C(N)=O)c4ncccc43)c2)C1=O` [Compound 164, 1-[3-[2-[(3R)-3-hydroxy-1-methyl-2-oxo-pyrrolidin-3-yl]ethynyl]phenyl)pyrazolo [4,3-b]pyridine-3-carboxamide], the Ki in assay [1] amounted to 1.54 nM. Moreover, the IC50 in assay [2] (setting [4]) is 20 µM; in assay [3], 208 nM.

For the compound `CN1CC[C@@](O)(C#Cc2cccc(-n3nc(C(N)=O)c4c3CCN(c3ccncn3)C4)c2)C1=O` [Compound 120, 1-[3-[2-[(3R)-3-hydroxy-1-methyl-2-oxo-pyrrolidin-3-yl]ethynyl]phenyl]-5-pyrimi-din-4-yl-6,7-dihydro-4H-pyra-zolo[4,5-c]pyridine-3-carbox-amide], the Ki in assay [1] worked out at 0.52 nM. Further, the IC50 was found to be 20 µM in assay [2] (setting [4]) and 1430 nM in assay [3].

`CN1CC[C@@](O)(C#Cc2cccc(-n3nc(C(N)=O)c4cc(-c5cnn(C)c5)cnc43)c2)C1=O` [Compound 104, 1-[3-[2-[(3R)-3-hydroxy-1-methyl-2-oxo-pyrrolidin-3-yl]ethynyl]phenyl]-5-(1-meth-ylpyrazol-4-yl)pyrazolo[3,4-b]pyridine-3-carboxamide]: the Ki in assay [1] amounted to 0.1 nM. Besides, the results for the IC50 in assay [2] (setting [4]) and in assay [3] were 2 µM and 26.7 nM, respectively.

In the case of `CN1CC[C@@](O)(C#Cc2cc(C#N)cc(-n3nc(C(N)=O)c4cccnc43)c2)C1=O` [Compound 111, 1-[3-cyano-5-[2-[(3R)-3-hy-droxy-1-methyl-2-oxo-pyrroli-din-3-yl]ethynyl]phenyl] pyrazolo[3,4-b]pyridine-3-carboxamide], the Ki in assay [1] stood at 4.86 nM. Besides, the IC50 came to 20 µM in assay [2] (setting [4]) and 701 nM in assay [3].

With `CC(O)(C#Cc1cccc(-n2nc(C(N)=O)c3ccccc32)c1)c1nccs1` (single isomer, unassigned) [Compound 170], the Ki in assay [1] was 0.75 nM. Also, the IC50 was found to be 17.1 µM in assay [2] (HeLa, read-out: REL-A HeLa Transloc Assay (IC50) [μM]) and 244 nM in assay [3].

Consider `CN1CC[C@@](O)(C#Cc2ccnc(-n3nc(C(N)=O)c4c(F)cccc43)c2)C1=O` [Compound 10, 4-fluoro-1-[4-[2-[(3R)-3-hy-droxy-1-methyl-2-oxo-pyrroli-din-3-yl]ethynyl]-2-pyri-dyl]indazole-3-carboxamide], for which the Ki in assay [1] turned out to be 1.19 nM. Moreover, the IC50 was 20 µM in assay [2] (setting [4]) and 66.3 nM in assay [3].

As to `CN1CC[C@@](O)(C#Cc2cccc(-n3nc(C(N)=O)c4ccc(F)cc43)c2)C1=O` [Compound 189, 6-fluoro-1-[3-[2-[(3R)-3-hydroxy-1-methyl-2-oxo-pyrrolidin-3-yl]ethynyl]phenyl] indazole-3-carboxamide], the Ki in assay [1] is 0.05 nM. Besides, the IC50 was over 2 µM in assay [2] (setting [4]) and 95 nM in assay [3].

For `CN1CC[C@@](O)(C#Cc2cccc(-n3nc(C(N)=O)c4c3CCOC4)c2)C1=O` [Compound 70, 1-[3-[2-[(3R)-3-hydroxy-1-methyl-2-oxo-pyrrolidin-3-yl]ethynyl]phenyl]-6,7-dihy-dro-4H-pyrano[4,3-c]pyrazole-3-carboxamide], the Ki in assay [1] turned out to be 0.75 nM. In addition, the IC50 in assay [2] (setting [4]) was 20 µM; in assay [3] it was 864 nM.

As to `CN1CC[C@@](O)(C#Cc2cccc(-n3nc(C(N)=O)c4c3CCN(C(=O)OC(C)(C)C)C4)c2)C1=O` [Compound 16, tert-butyl 3-carbamoyl-1-[3-[2-[(3R)-3-hydroxy-1-methyl-2-oxo-pyrrolidin-3-yl]ethynyl]phe-nyl]-6,7-dihydro-4H-pyrazolo [4,3-c]pyridine-5-carboxylate], in assay [1], the Ki is 0.9 nM. For the same compound, the IC50 in assay [2] (setting [4]) amounted to 20 µM; in assay [3], 125 nM.

Consider `CN1CC[C@@](O)(C#Cc2cccc(-n3nc(C(N)=O)c4c3CCC4)c2)C1=O` [Compound 119, 1-[3-[2-[(3R)-3-hydroxy-1-methyl-2-oxo-pyrrolidin-3-yl]ethynyl]phenyl]-5,6-dihydro-4H-cyclopenta[c]pyrazole-3-carboxamide], for which the Ki in assay [1] was found to be 0.43 nM. In addition, the values for the IC50 in assay [2] (setting [4]) and in assay [3] were 20 µM and 45.8 nM, respectively.

Turning to `CN1CC[C@@](O)(C#Cc2cccc(-c3csc(C(N)=O)n3)c2)C1=O` [Compound 89, 4-[3-[2-[(3R)-3-hydroxy-1-methyl-2-oxo-pyrrolidin-3-yl]ethynyl]phenyl]thiazole-2-carboxamide], in assay [1], the Ki was found to be 1.65 nM. In addition, the IC50 in assay [2] (setting [4]) was over 20 µM; in assay [3] it was 226 nM.
